Five molecules from PMC5385520 (Scientific Reports, 2017) can be followed below.

The target of experiment [1] is T1, hDDO (human D-aspartate oxidase) (Homo sapiens, UniProt Q99489).
T1 sequence (Q99489 1-341): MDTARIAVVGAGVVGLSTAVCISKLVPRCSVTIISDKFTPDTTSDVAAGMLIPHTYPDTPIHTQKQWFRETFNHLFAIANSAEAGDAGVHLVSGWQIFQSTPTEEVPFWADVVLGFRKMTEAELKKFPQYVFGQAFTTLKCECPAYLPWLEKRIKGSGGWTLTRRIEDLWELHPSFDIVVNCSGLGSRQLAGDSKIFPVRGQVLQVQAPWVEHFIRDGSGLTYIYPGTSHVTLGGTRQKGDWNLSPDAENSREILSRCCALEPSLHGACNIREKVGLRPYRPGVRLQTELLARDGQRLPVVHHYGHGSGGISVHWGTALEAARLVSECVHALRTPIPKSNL
Put plainly: coupled HRP / Amplex UltraRed fluorescence assay. In kind it is biochemical. Further details: gene DDO; recombinant.

Experiment [2] concerns the target T1, hDDO (human D-aspartate oxidase). Put plainly: biochemical. Also noted: gene DDO.
The target of experiment [3] is T2, mDDO (mouse D-aspartate oxidase) (Mus musculus, UniProt Q922Z0).
T2 construct: gene Ddo; recombinant
T2 sequence (Q922Z0 1-341): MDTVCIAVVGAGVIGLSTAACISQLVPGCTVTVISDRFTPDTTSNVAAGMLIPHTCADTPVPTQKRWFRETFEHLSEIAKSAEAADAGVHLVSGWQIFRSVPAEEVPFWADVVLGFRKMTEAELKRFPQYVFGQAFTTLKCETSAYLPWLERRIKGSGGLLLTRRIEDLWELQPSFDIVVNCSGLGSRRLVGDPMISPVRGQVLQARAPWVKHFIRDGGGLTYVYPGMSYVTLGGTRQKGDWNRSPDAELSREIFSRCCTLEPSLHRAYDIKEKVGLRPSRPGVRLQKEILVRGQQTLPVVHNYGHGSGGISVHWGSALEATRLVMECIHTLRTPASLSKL
Kind of experiment: coupled HRP / Amplex UltraRed fluorescence assay. It is filed as biochemical. The following applies: D-Asp 7.5 mM; FAD 4 and 100 μM; inactive up to 300 μM.

Where [4] appears, read: read-out: Concentration (μM) / 1000.
Where [5] appears, read: read-out: Concentration (μM) / 100.

The structures appear in SMILES notation. Read-outs that look alike come from different tables or passages of the source.

In the case of `CC(NC(C)(C)C)C(=O)c1cccc(Cl)c1` (stereo not drawn) [bupropion], the activity at 1000 µM in experiment [1] (setting [4]) came to 89%.

On to `O=C(CCCN1CCC(O)(c2ccc(Cl)cc2)CC1)c1ccc(F)cc1` [haloperidol], for which, in experiment [1] (setting [5]), the activity at 1000 µM came out at 100%.

`CN(C)CCCN1c2ccccc2Sc2ccc(Cl)cc21` [chlorpromazine]: the activity at 1000 µM in experiment [1] (setting [4]) was greater than 90%.

With `Cc1cc2c(s1)Nc1ccccc1N=C2N1CCN(C)CC1` [olanzapine], the IC50 in experiment [2] worked out at 23.4 ± 1.6 µM.

`CN1CCN(C2=Nc3cc(Cl)ccc3Nc3ccccc32)CC1` [clozapine]: the activity at 1000 µM in experiment [1] (setting [5]) was greater than 95%. Moreover, the “coupled HRP / Amplex UltraRed fluorescence assay” value in experiment [3] was “both mDDO and hDDO was unaffected by clozapine at all concentrations tested”.

The IC50 is the concentration at which inhibition is half-maximal. The low end stands for inhibition by little substance, the high end for a need for much substance.
